{
  "source": "ChEMBL document CHEMBL1148572",
  "about": "“1-((S)-2-aminopropyl)-1H-indazol-6-ol: a potent peripherally acting 5-HT2 receptor agonist with ocular hypotensive activity” (J Med Chem, 2006)",
  "key": {"[1]": {"target": "GABA-A receptor; benzodiazepine site (Homo sapiens) (UniProt P14867+P18507+P48169+Q99928+P34903+Q8N1C3+P47869+P31644+Q16445)", "experiment": "Inhibition of central benzodiazepine site on GABAA receptor at 1 nM", "type": "protein-complex assay"}, "[2]": {"target": "T1, 5-hydroxytryptamine receptor 1A (Homo sapiens, UniProt P08908)", "T1 sequence (P08908 whole entry)": "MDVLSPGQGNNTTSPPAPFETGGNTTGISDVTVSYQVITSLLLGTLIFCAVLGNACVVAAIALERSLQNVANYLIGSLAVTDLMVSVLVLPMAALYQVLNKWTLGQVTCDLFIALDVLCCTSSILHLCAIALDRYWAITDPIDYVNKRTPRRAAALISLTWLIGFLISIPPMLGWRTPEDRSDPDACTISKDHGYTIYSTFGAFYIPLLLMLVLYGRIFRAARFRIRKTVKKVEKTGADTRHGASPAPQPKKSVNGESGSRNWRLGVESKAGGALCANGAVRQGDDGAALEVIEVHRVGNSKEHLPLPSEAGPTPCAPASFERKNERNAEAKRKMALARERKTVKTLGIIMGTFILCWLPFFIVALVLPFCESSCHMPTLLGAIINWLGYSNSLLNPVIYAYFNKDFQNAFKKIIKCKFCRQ", "experiment": "Displacement of [3H]8-OH-DPAT from recombinant human 5HT1A receptor expressed in CHO cells", "type": "cell-based"}, "[3]": {"target": "T2, 5-hydroxytryptamine receptor 1A (Homo sapiens) (UniProt P08908)", "T2 sequence (whole entry)": "T1 sequence (P08908 whole entry)", "experiment": "Inhibition of forskolin activated adenylate cyclase at 100 nM", "type": "functional"}, "[4]": {"target": "Muscarinic acetylcholine receptor (Homo sapiens) (UniProt P20309+P08173+P11229+P08172+P08912)", "experiment": "Inhibition of non selective binding to muscarinic receptor at 10 uM", "type": "protein assay"}, "[5]": {"target": "Epidermal growth factor receptor (Homo sapiens) (UniProt P00533)", "sequence (P00533 whole entry)": "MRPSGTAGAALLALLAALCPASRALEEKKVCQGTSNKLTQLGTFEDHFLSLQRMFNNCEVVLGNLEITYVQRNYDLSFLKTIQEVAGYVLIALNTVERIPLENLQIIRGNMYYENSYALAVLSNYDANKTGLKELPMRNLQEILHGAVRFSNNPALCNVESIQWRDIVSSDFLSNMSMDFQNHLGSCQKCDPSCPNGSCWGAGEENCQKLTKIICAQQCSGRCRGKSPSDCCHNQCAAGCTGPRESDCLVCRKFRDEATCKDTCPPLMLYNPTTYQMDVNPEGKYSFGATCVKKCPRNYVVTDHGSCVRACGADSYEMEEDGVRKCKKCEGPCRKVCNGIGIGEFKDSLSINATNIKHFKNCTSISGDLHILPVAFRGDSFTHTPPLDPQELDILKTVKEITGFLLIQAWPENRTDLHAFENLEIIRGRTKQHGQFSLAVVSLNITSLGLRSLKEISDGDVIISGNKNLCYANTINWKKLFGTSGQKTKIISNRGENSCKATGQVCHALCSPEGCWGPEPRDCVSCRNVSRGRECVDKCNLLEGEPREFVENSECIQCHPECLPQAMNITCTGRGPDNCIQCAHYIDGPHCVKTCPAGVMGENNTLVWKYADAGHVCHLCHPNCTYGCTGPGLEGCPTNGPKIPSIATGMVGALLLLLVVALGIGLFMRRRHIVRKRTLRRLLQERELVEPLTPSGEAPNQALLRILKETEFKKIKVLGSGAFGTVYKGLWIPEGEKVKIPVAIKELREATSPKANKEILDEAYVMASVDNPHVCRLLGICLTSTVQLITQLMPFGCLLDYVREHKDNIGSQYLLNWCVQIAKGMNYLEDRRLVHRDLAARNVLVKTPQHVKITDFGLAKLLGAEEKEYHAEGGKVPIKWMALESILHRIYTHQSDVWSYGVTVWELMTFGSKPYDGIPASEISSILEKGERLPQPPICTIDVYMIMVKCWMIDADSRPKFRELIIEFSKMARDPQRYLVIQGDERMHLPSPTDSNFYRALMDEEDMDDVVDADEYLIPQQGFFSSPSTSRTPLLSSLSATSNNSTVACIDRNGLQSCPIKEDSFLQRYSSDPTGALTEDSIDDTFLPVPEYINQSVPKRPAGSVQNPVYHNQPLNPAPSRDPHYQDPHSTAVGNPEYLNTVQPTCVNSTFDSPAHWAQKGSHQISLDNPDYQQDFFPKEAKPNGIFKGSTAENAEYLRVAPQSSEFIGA", "experiment": "Inhibition of EGFR at 10 uM"}, "[6]": {"target": "T3, Androgen receptor (Homo sapiens) (UniProt P10275)", "T3 sequence (whole entry)": "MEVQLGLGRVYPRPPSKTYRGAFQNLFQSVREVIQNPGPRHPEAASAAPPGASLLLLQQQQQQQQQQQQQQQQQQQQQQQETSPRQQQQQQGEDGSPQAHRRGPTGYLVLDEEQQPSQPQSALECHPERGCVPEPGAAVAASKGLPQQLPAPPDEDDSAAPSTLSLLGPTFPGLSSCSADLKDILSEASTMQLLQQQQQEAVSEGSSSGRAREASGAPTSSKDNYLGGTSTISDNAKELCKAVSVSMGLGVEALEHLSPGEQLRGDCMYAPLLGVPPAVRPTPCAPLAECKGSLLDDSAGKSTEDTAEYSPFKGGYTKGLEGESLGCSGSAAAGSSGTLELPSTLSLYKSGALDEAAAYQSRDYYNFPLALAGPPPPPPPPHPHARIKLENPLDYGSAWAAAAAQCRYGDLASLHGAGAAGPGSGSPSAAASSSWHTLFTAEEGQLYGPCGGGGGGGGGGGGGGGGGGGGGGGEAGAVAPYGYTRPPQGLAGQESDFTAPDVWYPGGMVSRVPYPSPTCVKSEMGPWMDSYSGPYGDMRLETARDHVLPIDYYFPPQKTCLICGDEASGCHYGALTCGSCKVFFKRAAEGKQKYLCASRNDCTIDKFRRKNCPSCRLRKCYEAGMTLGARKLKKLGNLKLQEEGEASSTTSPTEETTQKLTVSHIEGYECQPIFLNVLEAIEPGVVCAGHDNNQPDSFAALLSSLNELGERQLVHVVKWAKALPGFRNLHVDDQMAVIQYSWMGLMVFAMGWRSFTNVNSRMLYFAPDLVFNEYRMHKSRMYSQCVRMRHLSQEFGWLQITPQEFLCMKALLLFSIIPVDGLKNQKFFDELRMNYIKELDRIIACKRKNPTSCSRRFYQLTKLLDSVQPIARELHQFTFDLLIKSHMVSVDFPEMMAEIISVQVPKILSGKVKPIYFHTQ", "experiment": "Inhibition of testosterone receptor at 10 uM"}, "[7]": {"target": "T4, monoamine oxidase A (MAO-A) (Rattus norvegicus, UniProt P21396)", "T4 sequence (P21396 whole entry)": "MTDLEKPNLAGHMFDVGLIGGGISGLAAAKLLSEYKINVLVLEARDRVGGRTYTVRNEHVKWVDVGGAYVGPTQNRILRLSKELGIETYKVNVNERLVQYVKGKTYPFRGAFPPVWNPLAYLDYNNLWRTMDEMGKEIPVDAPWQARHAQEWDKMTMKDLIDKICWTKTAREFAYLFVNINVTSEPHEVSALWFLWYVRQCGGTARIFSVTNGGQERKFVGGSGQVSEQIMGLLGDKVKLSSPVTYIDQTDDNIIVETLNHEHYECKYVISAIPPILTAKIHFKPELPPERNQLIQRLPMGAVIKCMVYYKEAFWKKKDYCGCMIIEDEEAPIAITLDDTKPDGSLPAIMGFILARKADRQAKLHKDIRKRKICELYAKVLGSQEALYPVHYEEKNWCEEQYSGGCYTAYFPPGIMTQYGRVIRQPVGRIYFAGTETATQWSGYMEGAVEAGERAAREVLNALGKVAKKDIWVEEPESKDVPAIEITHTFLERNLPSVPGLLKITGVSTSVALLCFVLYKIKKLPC", "experiment": "Inhibition of monoamine oxidase A in rat brain at 1 nM", "type": "tissue-based"}, "[8]": {"target": "T5, B2 bradykinin receptor (Homo sapiens) (UniProt P30411)", "T5 sequence (whole entry)": "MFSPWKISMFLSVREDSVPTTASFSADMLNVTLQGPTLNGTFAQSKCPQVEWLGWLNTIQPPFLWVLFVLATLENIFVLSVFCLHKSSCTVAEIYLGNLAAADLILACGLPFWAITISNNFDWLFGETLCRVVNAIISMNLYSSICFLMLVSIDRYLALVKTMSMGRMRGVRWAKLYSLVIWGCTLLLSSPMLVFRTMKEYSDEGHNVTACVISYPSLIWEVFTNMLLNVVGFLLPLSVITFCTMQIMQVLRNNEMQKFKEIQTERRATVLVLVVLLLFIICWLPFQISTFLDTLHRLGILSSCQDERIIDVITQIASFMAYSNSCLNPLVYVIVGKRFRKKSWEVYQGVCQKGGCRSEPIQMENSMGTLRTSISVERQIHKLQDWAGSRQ", "experiment": "Inhibition of bradykinin 2 receptor at 10 uM"}},
  "data": [
    {"smiles": "C[C@H](N)Cn1ncc2ccc(O)cc21", "values": [
      {"measurement": "inhibition", "setting": "[1]", "value": 19.6, "unit": "%"},
      {"measurement": "Ki", "setting": "[2]", "value": 141, "unit": "nM"},
      {"measurement": "inhibition", "setting": "[3]", "value": -2.24, "unit": "%"},
      {"measurement": "inhibition", "setting": "[4]", "value": 12.2, "unit": "%"},
      {"measurement": "inhibition", "setting": "[5]", "value": -5.17, "unit": "%"},
      {"measurement": "inhibition", "setting": "[6]", "value": 21.9, "unit": "%"},
      {"measurement": "inhibition at 0.001 µM", "setting": "[7]", "value": -14.4, "unit": "%"},
      {"measurement": "inhibition", "setting": "[8]", "value": 0.11, "unit": "%"}
    ]}
  ]
}
